From US12168673B2 (Mitopower, Inc., priority 2022, dated 2024)

Experiments:
Huh-7 Cells = assay: Cellular NAD+ levels in Huh-7 cells (LCMS/MS); type: cell-based; conditions: 125 μm, four hours of incubation
Experimental: (§1) Huh-7 Cells, sourced from NCCS Pune, were cultured in RPMI media containing FBS & Antibiotics. Cells from different flasks (80-90% confluent) were pooled into a 15 mL conical tube and centrifuged for 5 mins at 1200 rpm for 5 mins. The supernatant solution was discarded, and the pellet was washed with 5 mL sterile PBS (without Ca^2+ and Mg^2+). The tube was then centrifuged at 1200 rpm for 5 mins and the supernatant was discarded. The cell pellet was resuspended in 7 mL of RPMI media, and a cell count was done using 10 uL of the cell solution. 1.5 million cells from the cell solution were seeded into 1.5 mL microcentrifuge tubes. […] The tubes were placed in racks and gently swirled to mix the compounds into the media containing the cells. These tubes were then incubated for 4 hours in a 37° C. incubator at 5% CO2. After 4 hours of incubation the cells were spun down at 1000 rpm for 10 mins, the supernatant was discarded carefully, and cells were snap frozen in liquid nitrogen. When the samples were run, the extraction of the cells was on ice, cells were lysed using 20 uL deionized water and then ice cold 80% methanol containing the internal standard—Rac-Tenofovir D was added. The tubes were then vortexed at 2500 rpm for 8 minutes and then centrifuged at […] for 10 minutes. 150 uL of the supernatant was carefully transferred to HPLC vials and was analyzed for NAD^+ on the Abscised 4000 Q Trap LCMS/MS system. A C18, 3.5 μm, 2.1×100 mm, Bridge Column was used in the LC. The mobile phase consisted of 10 mM ammonium acetate with 0.1% acetic acid & 0.1% hexylamine as Solvent-A and 10 mM Ammonium acetate with 0.1% acetic acid and 0.1% hexylamine in 95/5 MeOH/H2O as Solvent-B. The gradient used was 0 mins-0.0% B, 0.5 mins-100% B, 1.5 mins-100% B, 3.0 mins-100% B, 3.1 mins-0.0% B, 7.0-STOP. The column flow rate was 0.5 mL/min. The sample injection volume was […].

Jurkat Cells = assay: Cellular NAD+ levels in Jurkat cells (LCMS/MS); type: cell-based; conditions: 30 μM, four hours of incubation
Experimental: Compounds 100, 101 and 102 were weighted out to prepare 60 μM stock solutions in RPMI media. 200 ng/mL solution of Rac-tenofovir d6 (Vivan Life-Sciences) was prepared in methanol (MeOH) and placed at −20° C. until use.
as §1, with “Jurkat Cells,” for “Huh-7 Cells,”, “flasks (90%” for “flasks (80-90%”, “Ca^2+ &” for “Ca^2+ and”, “acid and” for “acid &”

[1] = Stability in solutions (pH range, simulated gastric fluid, simulated intestinal fluid); type: physicochemical
Experimental: 1 mg/ml solutions of compound 100 were prepared in each buffer, diluted to 0.1 mg/ml in methanol at each time point and analyzed as follows: Gemini C-18, 250×4.6 mm, 5 im, Mobile Phase: Methanol Isocratic Flow Rate: 0.4 mL/min.

COC(=O)[C@@H](C)NP(=O)(OC[C@H]1OC(OC(=O)c2cccnc2)[C@H](O)[C@@H]1O)Oc1ccccc1 (stereo partly drawn) [Compound 101, (3R, 4S, 5R)-3,4-dihydroxy-5-(((((1-methoxy-1-oxopropan-2-yl)amino)(phenoxy)phosphoryl)oxy)methyl)tetrahydrofuran-2-yl nicotinate]
NAD+ level increase compared to untreated cells (Huh-7 Cells): showed an increase | NAD+ level increase compared to untreated cells (Jurkat Cells): showed statistical significance in terms of NAD^+ level increases | NAD+ level increase, comparison among the compounds (Jurkat Cells): highest increase | % remaining ([1]; SGF (simulated gastric fluid), 0 h): 90.17% | % remaining ([1]; SGF (simulated gastric fluid), 1 week): 3.41% | % remaining ([1]; SGF (simulated gastric fluid), 1 h): 88.8% | % remaining ([1]; SGF (simulated gastric fluid), 2 h): 87.74% | % remaining ([1]; SGF (simulated gastric fluid), 4 h): 83.09% | % remaining ([1]; SGF (simulated gastric fluid), 8 h): 77.12% | % remaining ([1]; SGF (simulated gastric fluid), 24 h): 41.98% | % remaining ([1]; SGF (simulated gastric fluid), 48 h): 29.17% | % remaining ([1]; SIF (simulated intestinal fluid), 0 h): 91.59% | % remaining ([1]; SIF (simulated intestinal fluid), 1 week): 76.58% | % remaining ([1]; SIF (simulated intestinal fluid), 1 h): 91.12% | % remaining ([1]; SIF (simulated intestinal fluid), 2 h): 91.16% | % remaining ([1]; SIF (simulated intestinal fluid), 4 h): 90.07% | % remaining ([1]; SIF (simulated intestinal fluid), 8 h): 90.28% | % remaining ([1]; SIF (simulated intestinal fluid), 24 h): 85.29% | % remaining ([1]; SIF (simulated intestinal fluid), 48 h): 85.54% | % remaining ([1]; pH 1, 0 h): 88.03% | % remaining ([1]; pH 1, 1 week): 1.01% | % remaining ([1]; pH 1, 1 h): 85.91% | % remaining ([1]; pH 1, 2 h): 85.4% | % remaining ([1]; pH 1, 4 h): 81.82% | % remaining ([1]; pH 1, 8 h): 74.41% | % remaining ([1]; pH 1, 24 h): 50.26% | % remaining ([1]; pH 1, 48 h): 16.35% | % remaining ([1]; pH 2, 0 h): 88.86% | % remaining ([1]; pH 2, 1 week): 13.5% | % remaining ([1]; pH 2, 1 h): 88.82% | % remaining ([1]; pH 2, 2 h): 87.46% | % remaining ([1]; pH 2, 4 h): 85.16% | % remaining ([1]; pH 2, 8 h): 81.19% | % remaining ([1]; pH 2, 24 h): 63.31% | % remaining ([1]; pH 2, 48 h): 35.33% | % remaining ([1]; pH 4, 0 h): 82.98% | % remaining ([1]; pH 4, 1 week): 37.7% | % remaining ([1]; pH 4, 1 h): 83.96% | % remaining ([1]; pH 4, 2 h): 82.79% | % remaining ([1]; pH 4, 4 h): 81.96% | % remaining ([1]; pH 4, 8 h): 79.6% | % remaining ([1]; pH 4, 24 h): 70.75% | % remaining ([1]; pH 4, 48 h): 69.7% | % remaining ([1]; pH 6, 0 h): 88.78% | % remaining ([1]; pH 6, 1 week): 73.66% | % remaining ([1]; pH 6, 1 h): 88.01% | % remaining ([1]; pH 6, 2 h): 87.98% | % remaining ([1]; pH 6, 4 h): 87.55% | % remaining ([1]; pH 6, 8 h): 86.2% | % remaining ([1]; pH 6, 24 h): 86.09% | % remaining ([1]; pH 6, 48 h): 73.74% | % remaining ([1]; pH 7.4, 0 h): 88.58% | % remaining ([1]; pH 7.4, 1 week): 67.37% | % remaining ([1]; pH 7.4, 1 h): 88.62% | % remaining ([1]; pH 7.4, 2 h): 88.48% | % remaining ([1]; pH 7.4, 4 h): 87.24% | % remaining ([1]; pH 7.4, 8 h): 86.71% | % remaining ([1]; pH 7.4, 24 h): 86.62% | % remaining ([1]; pH 7.4, 48 h): 79.75% | % remaining ([1]; pH 9, 0 h): 90.15% | % remaining ([1]; pH 9, 1 week): 0% | % remaining ([1]; pH 9, 1 h): 80.81% | % remaining ([1]; pH 9, 2 h): 70.65% | % remaining ([1]; pH 9, 4 h): 48.75% | % remaining ([1]; pH 9, 8 h): 26.14% | % remaining ([1]; pH 9, 24 h): 4.45% | % remaining ([1]; pH 9, 48 h): 0%
